The source of these data is US20260000692A1, “Substituted N-(Pyridin-2-yl)Acetamide Derivatives as CDK12/13 Inhibitors” (Aurigene Oncology Limited, priority 2022, published 2026).

In the test the target is CDK12 (Homo sapiens, UniProt Q9NYV4). In words: Biochemical assay for CDK12 (LANCE TR-FRET, IC50 determination). To be noted: for IC50: CDK12, IC50 class, read-out: IC50 μM (in range); for inhibition at 10 µM / CDK12 % Inhibition @ 10 μM: compound at 10 μM; for inhibition at 10 µM: read-out: CDK12 % Inhibition @ 10 μM. As to the method: Biochemical Assay for CDK12 (IC50 Determination):
The inhibitory activity of the test compounds was assessed by the LANCE TR-FRET assay, which detects the ATP-dependent phosphorylation of an ULight-4E-BP1 (Thr37/Thr46) substrate peptide (100 nM) by CDK12 (30 nM). Briefly, the enzyme reaction was run in reaction buffer (25 mM HEPES (pH 7.5), 10 mM MgCl2, […], 0.01% Triton x, 1 mM DTT). The assay was performed in 384-well plate format. The end concentration of the ATP substrate was […], and that of the ULight-4E-BP1 (Thr37/Thr46) substrate peptide was 100 nM, and of CDK12 was 30 nM. Pre-incubation of the compound and enzyme was performed for 60 min at room temperature. After 60 min incubation at room temperature, the reaction was terminated by the addition of 40 mM EDTA and 0.5 nM Eu-labeled anti-phospho-eIF4E-binding protein (Thr37/46) antibody in LANCE detection buffer. Time-resolved fluorescence (excitation, 320 nm; emission donor, 615 nm; emission acceptor, 665 nm) was monitored by using 2030 multilabel reader Victor5 (PerkinElmer). The Fluorescence emission of the samples were measured and the ratio was plotted against the compound concentration to generate the dose response curve. The IC50 values were derived by fitting a sigmoidal dose-response curve to a plot of assay readout over inhibitor concentration. All fits were computed with the program Prism 5.03 (Graph Pad Software, San Diego, CA). The % inhibition values at […] were calculated with respect to enzyme activity.
For orientation: In TR-FRET formats the signal depends on donor and acceptor labels being close together.

Structures are written as SMILES.

Sequence of CDK12 (Q9NYV4 whole entry): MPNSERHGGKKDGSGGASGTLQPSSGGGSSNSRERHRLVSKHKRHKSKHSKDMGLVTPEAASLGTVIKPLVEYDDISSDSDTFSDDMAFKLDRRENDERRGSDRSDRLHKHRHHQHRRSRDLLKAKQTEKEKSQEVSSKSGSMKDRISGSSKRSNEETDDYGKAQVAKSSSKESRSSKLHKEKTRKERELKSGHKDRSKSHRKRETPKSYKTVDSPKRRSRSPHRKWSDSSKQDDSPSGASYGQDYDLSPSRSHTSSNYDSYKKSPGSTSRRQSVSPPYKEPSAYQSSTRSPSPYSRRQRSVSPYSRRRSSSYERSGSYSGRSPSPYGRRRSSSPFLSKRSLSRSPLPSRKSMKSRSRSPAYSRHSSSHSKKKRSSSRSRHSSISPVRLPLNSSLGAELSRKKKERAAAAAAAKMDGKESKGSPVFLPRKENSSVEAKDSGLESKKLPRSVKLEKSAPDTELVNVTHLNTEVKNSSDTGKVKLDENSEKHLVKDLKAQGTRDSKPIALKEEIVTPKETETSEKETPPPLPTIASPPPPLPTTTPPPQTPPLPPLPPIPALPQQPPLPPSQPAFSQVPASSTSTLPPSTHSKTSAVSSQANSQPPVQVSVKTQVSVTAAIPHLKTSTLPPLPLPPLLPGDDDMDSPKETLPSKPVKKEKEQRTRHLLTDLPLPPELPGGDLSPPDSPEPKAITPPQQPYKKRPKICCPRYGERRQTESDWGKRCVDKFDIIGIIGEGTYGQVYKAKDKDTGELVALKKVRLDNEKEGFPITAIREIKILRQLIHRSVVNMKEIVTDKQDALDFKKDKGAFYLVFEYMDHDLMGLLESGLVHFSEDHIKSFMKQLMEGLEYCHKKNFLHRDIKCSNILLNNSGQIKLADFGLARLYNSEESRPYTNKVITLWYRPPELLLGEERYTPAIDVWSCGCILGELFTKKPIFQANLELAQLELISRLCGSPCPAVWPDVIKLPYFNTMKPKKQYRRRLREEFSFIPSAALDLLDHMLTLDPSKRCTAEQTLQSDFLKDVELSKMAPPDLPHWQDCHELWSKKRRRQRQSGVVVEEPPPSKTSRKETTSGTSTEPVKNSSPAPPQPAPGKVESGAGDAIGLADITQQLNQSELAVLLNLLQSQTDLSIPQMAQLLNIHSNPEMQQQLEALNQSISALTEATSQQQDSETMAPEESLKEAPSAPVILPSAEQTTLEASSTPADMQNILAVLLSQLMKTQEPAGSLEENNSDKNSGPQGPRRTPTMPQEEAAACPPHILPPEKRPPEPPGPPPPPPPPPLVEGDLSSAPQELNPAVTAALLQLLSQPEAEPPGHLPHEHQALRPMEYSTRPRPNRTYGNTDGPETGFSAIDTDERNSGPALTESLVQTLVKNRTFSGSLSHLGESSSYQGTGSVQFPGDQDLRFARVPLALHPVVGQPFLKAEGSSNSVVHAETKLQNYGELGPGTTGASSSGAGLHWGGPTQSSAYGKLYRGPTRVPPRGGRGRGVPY
Sequence of CDK12 (O75909 whole entry partner): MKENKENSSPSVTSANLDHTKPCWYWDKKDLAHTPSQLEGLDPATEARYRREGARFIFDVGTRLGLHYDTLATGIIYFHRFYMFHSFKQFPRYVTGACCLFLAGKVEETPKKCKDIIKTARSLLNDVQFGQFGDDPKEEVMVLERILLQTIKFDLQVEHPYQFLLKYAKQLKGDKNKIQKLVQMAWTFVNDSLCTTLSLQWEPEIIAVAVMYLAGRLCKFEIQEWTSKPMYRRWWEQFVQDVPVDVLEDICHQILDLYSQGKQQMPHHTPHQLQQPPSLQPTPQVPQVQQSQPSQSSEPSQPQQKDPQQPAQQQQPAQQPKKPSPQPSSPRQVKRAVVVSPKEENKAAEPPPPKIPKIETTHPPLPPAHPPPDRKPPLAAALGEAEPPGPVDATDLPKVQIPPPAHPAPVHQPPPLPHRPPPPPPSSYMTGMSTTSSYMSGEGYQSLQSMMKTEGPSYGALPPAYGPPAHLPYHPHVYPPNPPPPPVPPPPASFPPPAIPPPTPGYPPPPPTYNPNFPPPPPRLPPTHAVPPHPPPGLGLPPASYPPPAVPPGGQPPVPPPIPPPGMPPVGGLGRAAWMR

Broadly, the IC50 is the concentration that gives 50% inhibition. As usually defined, the inhibition is the relative decrease from the control value, in per cent. Turning to `CNC(=O)C(C)Oc1cc(NC(=O)Cc2ccc(-c3cccc(C#N)n3)nc2)ncc1Cl` (racemic) [Compound 155, 2-((5-chloro-2-(2-(6′-cyano-[2,2′-bipyridin]-5-yl)acetamido)pyridin-4-yl)oxy)-N-methylpropanamide], the IC50 was in the range of 0.01 to 0.1 µM and the inhibition at 10 µM was 97%.

For `CNC(=O)C(C)Oc1cc(NC(=O)Cc2ccc(C3=CCN(C#N)CC3)nc2)ncc1Cl` (single isomer, unassigned) [Compound 2, 2-((5-chloro-2-(2-(1′-cyano-1′,2′,3′,6′-tetrahydro-[2,4′-bipyridin]-5-yl)acetamido)pyridin-4-yl)oxy)-N-methylpropanamide], the IC50 was less than 0.01 µM and the inhibition at 10 µM was found to be 90%.

On to `CNC(=O)C(C)Oc1cc(NC(=O)Cc2ccc(C3=CCN(C#N)CC3)nc2)ncc1Cl` (single isomer, unassigned) [Compound 3, 2-((5-chloro-2-(2-(1′-cyano-1′,2′,3′,6′-tetrahydro-[2,4′-bipyridin]-5-yl)acetamido)pyridin-4-yl)oxy)-N-methylpropanamide], for which the IC50 is less than 0.01 µM and the inhibition at 10 µM amounted to 84%.

For `N#CN1CCC=C(c2ccc(CC(=O)Nc3cc(OC4CCCOC4)c(Cl)cn3)cn2)C1` (single isomer, unassigned) [Compound 44, N-(5-chloro-4-((tetrahydro-2H-pyran-3-yl)oxy)pyridin-2-yl)-2-(1′-cyano-1′,2′,5′,6′-tetrahydro-[2,3′-bipyridin]-5-yl)acetamide], the IC50 was less than 0.01 µM and the inhibition at 10 µM came to 89%.

As for `N#CN1CCC=C(c2ccc(CC(=O)Nc3cc(OC4CCCOC4)c(Cl)cn3)cn2)C1` (single isomer, unassigned) [Compound 45, N-(5-chloro-4-((tetrahydro-2H-pyran-3-yl)oxy)pyridin-2-yl)-2-(1′-cyano-1′,2′,5′,6′-tetrahydro-[2,3′-bipyridin]-5-yl)acetamide], the IC50 was less than 0.01 µM. In addition, the “CDK12 % Inhibition @ 10 μM” value (10 µM) was 92%.

Turning to `COc1cc(NC(=O)C(C)c2ccc(C3=CCCN(C#N)C3)nc2)ncc1Cl` (single isomer, unassigned) [Compound 49], the IC50 was less than 0.01 µM and the inhibition at 10 µM is 89%.

As for `COc1cc(NC(=O)C(C)c2ccc(C3=CCN(C#N)CC3)nc2)ncc1Cl` (single isomer, unassigned) [Compound 52], the IC50 is less than 0.01 µM and the inhibition at 10 µM came to 102%.

Consider `CNC(=O)C(C)Oc1cc(NC(=O)Cc2ccc(C3=CCCN(C#N)C3)nc2)ncc1Cl` (single isomer, unassigned) [Compound 57, 2-((5-chloro-2-(2-(1′-cyano-1′,2′,5′,6′-tetrahydro-[2,3′-bipyridin]-5-yl)acetamido)pyridin-4-yl)oxy)-N-methylpropanamide], for which the IC50 is less than 0.01 µM and the inhibition at 10 µM worked out at 78%.

Take `CNC(=O)C(C)Oc1cc(NC(=O)Cc2ccc(C3=CCCN(C#N)C3)nc2)ncc1Cl` (single isomer, unassigned) [Compound 58, 2-((5-chloro-2-(2-(1′-cyano-1′,2′,5′,6′-tetrahydro-[2,3′-bipyridin]-5-yl)acetamido)pyridin-4-yl)oxy)-N-methylpropanamide]: the IC50 is less than 0.01 µM. For the same compound, where the note is “10 µM”, the “CDK12 % Inhibition @ 10 μM” value is on record as 98%.

As to `CC1CC(Oc2cc(NC(=O)Cc3ccc(C4=CCCN(C#N)C4)nc3)ncc2Cl)CCN1C` (single isomer, unassigned) [Compound 64, N-(5-chloro-4-((1,2-dimethylpiperidin-4-yl)oxy)pyridin-2-yl)-2-(1′-cyano-1′,2′,5′,6′-tetrahydro-[2,3′-bipyridin]-5-yl)acetamide], the IC50 was less than 0.01 µM and the inhibition at 10 µM amounted to 92%.

Turning to `COc1cc(NC(=O)Cc2ccc(C3=CCN(C#N)C(C)C3)nc2)ncc1Cl` (single isomer, unassigned) [Compound 66, N-(5-chloro-4-methoxypyridin-2-yl)-2-(1′-cyano-2′-methyl-1′,2′,3′,6′-tetrahydro-[2,4′-bipyridin]-5-yl)acetamide], the IC50 was in the range of 0.01 to 0.1 µM and the inhibition at 10 µM came out at 88%.

Turning to `COc1cc(NC(=O)Cc2ccc(C3=CCN(C#N)C(C)C3)nc2)ncc1Cl` (single isomer, unassigned) [Compound 67, N-(5-chloro-4-methoxypyridin-2-yl)-2-(1′-cyano-2′-methyl-1′,2′,3′,6′-tetrahydro-[2,4′-bipyridin]-5-yl)acetamide], the IC50 fell in the range of 0.01 to 0.1 µM. In addition, the “CDK12 % Inhibition @ 10 μM” value (10 µM) was found to be 86%.

For the compound `COc1cc(NC(=O)Cc2ccc(C3=CCN(C#N)C(C)C3)nc2)ncc1Cl` (single isomer, unassigned) [Compound 68, N-(5-chloro-4-methoxypyridin-2-yl)-2-(1′-cyano-2′-methyl-1′,2′,3′,6′-tetrahydro-[2,4′-bipyridin]-5-yl)acetamide], the IC50 was less than 0.01 µM. Moreover, the “CDK12 % Inhibition @ 10 μM” value (10 µM) came out at 87%.

`COc1cc(NC(=O)Cc2ccc(C3=CCN(C#N)CC3C)nc2)ncc1Cl` (single isomer, unassigned) [Compound 71, N-(5-chloro-4-methoxypyridin-2-yl)-2-(1′-cyano-3′-methyl-1′,2′,3′,6′-tetrahydro-[2,4′-bipyridin]-5-yl)acetamide]: the 50% inhibitory concentration (IC50) is less than 0.01 µM and the inhibition at 10 µM was determined as 93%.

As to `COc1cc(NC(=O)Cc2ccc(C3=CCN(C#N)CC3C)nc2)ncc1Cl` (single isomer, unassigned) [Compound 72, N-(5-chloro-4-methoxypyridin-2-yl)-2-(1′-cyano-3′-methyl-1′,2′,3′,6′-tetrahydro-[2,4′-bipyridin]-5-yl)acetamide], the IC50 is less than 0.01 µM. Also, for the setting “10 µM”, the “CDK12 % Inhibition @ 10 μM” value is given as 92%.

For `COc1cc(NC(=O)Cc2ccc(C3CCCN(C#N)C3)nc2)ncc1Cl` (single isomer, unassigned) [Compound 79, N-(5-chloro-4-methoxypyridin-2-yl)-2-(6-(1-cyanopiperidin-3-yl)pyridin-3-yl)acetamide], the IC50 was more than 0.1 µM and the inhibition at 10 µM was determined as 79%.

Take `COc1cc(NC(=O)Cc2ccc(C3CCCN(C#N)C3)nc2)ncc1Cl` (single isomer, unassigned) [Compound 80, N-(5-chloro-4-methoxypyridin-2-yl)-2-(6-(1-cyanopiperidin-3-yl)pyridin-3-yl)acetamide]: the IC50 is 0.01 to 0.1 µM. Further, under “10 µM”, the “CDK12 % Inhibition @ 10 μM” value turned out to be 87%.

`CNC(=O)C(C)Oc1cc(NC(=O)Cc2ccc(C3CCN(C#N)CC3)nc2)ncc1Cl` (single isomer, unassigned) [Compound 83, 2-((5-chloro-2-(2-(6-(1-cyanopiperidin-4-yl)pyridin-3-yl)acetamido)pyridin-4-yl)oxy)-N-methylpropanamide]: the IC50 lay within 0.01 to 0.1 µM and the inhibition at 10 µM turned out to be 84%.

Turning to `CNC(=O)C(C)Oc1cc(NC(=O)Cc2ccc(C3CCN(C#N)CC3)nc2)ncc1Cl` (single isomer, unassigned) [Compound 84, 2-((5-chloro-2-(2-(6-(1-cyanopiperidin-4-yl)pyridin-3-yl)acetamido)pyridin-4-yl)oxy)-N-methylpropanamide], the IC50 was less than 0.01 µM and the “CDK12 % Inhibition @ 10 μM” value was found to be 84%.
